Consider 8 molecules from ChEMBL document CHEMBL4342491, “Development of a Versatile and Sensitive Direct Ligand Binding Assay for Human NR5A Nuclear Receptors” (ACS Med Chem Lett, 2020).

The target of assay [1] is T1, Steroidogenic factor 1 (Homo sapiens, UniProt Q13285). Description: Binding affinity to SF1 LBD (218 to 461 residues) (unknown origin) expressed in Escherichia coli BL21 pLysS measured after overnight incubation by fluorescence polarization assay.
Assay [2] concerns the target T1, Steroidogenic factor 1.
Description: Displacement of 6N-FAM from SF1 LBD (218 to 461 residues) (unknown origin) expressed in Escherichia coli BL21 pLysS by competitive binding based fluorescence polarization assay
Assay [3] deals with T1, Steroidogenic factor 1. Description: Inhibition of Gal4-fused human SF1 LBD (198 to 462 residues) expressed in CHO-K1 cells. The format is cell-based.
The target in assay [4] is Nuclear receptor subfamily 5 group A member 2 (Homo sapiens) (UniProt O00482). In words: Binding affinity to human LRH1 LBD expressed in Escherichia coli BL21 by electrophoretic mobility shift assay. A general note: Mobility shift assays separate free from complexed probe on a gel.
Assay [5] addresses T1, Steroidogenic factor 1. In words: Binding affinity to human SF1 LBD (218 to 461 residues) expressed in Escherichia coli BL21 by electrophoretic mobility shift assay.

T1 sequence (Q13285 whole entry, the tested form may be a part): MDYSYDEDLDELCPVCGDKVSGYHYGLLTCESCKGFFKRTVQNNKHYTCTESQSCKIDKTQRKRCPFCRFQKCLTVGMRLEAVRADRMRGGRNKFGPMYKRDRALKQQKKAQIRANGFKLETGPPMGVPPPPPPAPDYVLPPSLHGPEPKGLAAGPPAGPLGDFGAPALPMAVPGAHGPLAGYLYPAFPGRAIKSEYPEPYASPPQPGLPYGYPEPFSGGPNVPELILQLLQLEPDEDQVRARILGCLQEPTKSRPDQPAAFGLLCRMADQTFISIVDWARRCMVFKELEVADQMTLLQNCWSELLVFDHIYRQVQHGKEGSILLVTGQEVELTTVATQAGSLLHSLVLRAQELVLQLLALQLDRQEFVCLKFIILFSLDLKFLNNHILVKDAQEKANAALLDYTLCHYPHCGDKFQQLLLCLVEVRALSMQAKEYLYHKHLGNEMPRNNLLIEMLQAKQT
Nuclear receptor subfamily 5 group A member 2 (Homo sapiens), sequence (O00482 whole entry, the tested form may be a part): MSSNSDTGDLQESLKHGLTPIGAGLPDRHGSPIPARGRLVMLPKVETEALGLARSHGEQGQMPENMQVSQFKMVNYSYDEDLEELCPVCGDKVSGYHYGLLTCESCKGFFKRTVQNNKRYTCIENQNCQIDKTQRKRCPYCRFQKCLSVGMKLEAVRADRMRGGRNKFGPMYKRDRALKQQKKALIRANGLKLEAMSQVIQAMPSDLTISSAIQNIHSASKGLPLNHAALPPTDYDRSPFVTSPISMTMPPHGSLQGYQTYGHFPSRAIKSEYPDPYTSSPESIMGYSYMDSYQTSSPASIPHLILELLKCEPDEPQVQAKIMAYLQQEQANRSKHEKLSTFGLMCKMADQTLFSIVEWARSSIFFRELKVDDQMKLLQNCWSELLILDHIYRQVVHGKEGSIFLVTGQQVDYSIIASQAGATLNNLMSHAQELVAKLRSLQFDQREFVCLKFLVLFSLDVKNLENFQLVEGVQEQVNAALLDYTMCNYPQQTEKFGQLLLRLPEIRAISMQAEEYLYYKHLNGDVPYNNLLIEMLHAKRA

For `C=C(c1ccccc1)[C@@]12CC[C@H](NS(N)(=O)=O)[C@@H]1CC(CCCCCCCCCC(=O)Nc1ccc3c(c1)C(=O)OC31c3ccc(O)cc3Oc3cc(O)ccc31)=C2c1ccccc1`, on Steroidogenic factor 1 [1], binding was put at a Kd of 12.3 nM. That is a double-digit nanomolar value.
Regarding `C=C(c1ccccc1)[C@@]12CC[C@H](N)[C@@H]1CC(CCCCCCCCCC(=O)OC)=C2c1ccccc1`, the affinity on Steroidogenic factor 1 [2] corresponds to a Ki of 7800 nM. This lies in the single-digit micromolar range.
With `CCCCNC(=O)c1cc(C(C)(C)C)cc(C(C)(C)C)c1O`, the Ki (usually the dissociation constant of the complex between target and ligand, obtained from inhibition or displacement) on Steroidogenic factor 1 [2] was 34700 nM.
With `CCOC(=O)C(C)Oc1cccc2c(=O)n(CC(=O)Nc3ccc4c(c3)OCCO4)ccc12` (centres undefined), the midpoint of inhibition on Steroidogenic factor 1 [3], the IC50, lay at 30 nM.
Consider `CCCC(=O)OC[C@H](COP(=O)(O)O[C@H]1[C@H](O)[C@@H](OP(=O)(O)O)[C@H](OP(=O)(O)O)[C@@H](OP(=O)(O)O)[C@H]1O)OC(=O)CCC`, for which the Activity in assay [4] turned out to be 120 nM.
As to `CCCCC/C=C\C/C=C\C/C=C\C/C=C\CCCC(=O)OC(COC(=O)CCCCCCCCCCCCCCCCC)COP(=O)(O)O[C@@H]1[C@H](O)[C@H](O)[C@@H](OP(=O)(O)O)[C@H](OP(=O)(O)O)[C@H]1O` (some centres undefined), the Activity at Steroidogenic factor 1 [5] was 250 nM. Also, on Steroidogenic factor 1 [2], the affinity corresponds to a Ki of 418 nM.
On Steroidogenic factor 1 [2], `C=C(c1ccccc1)[C@@]12CC[C@H](NS(N)(=O)=O)C1CC(CCCCCC)=C2c1ccccc1` (some centres undefined) gave a Ki of 1400 nM. This counts as single-digit micromolar.
The same measure, in the same setting: the value for `CCCCCCCCCCCC(=O)OC[C@H](COP(=O)([O-])OCC[N+](C)(C)C)OC(=O)CCCCCCCCCCC` was 850 nM.
